Results taken from patent publication US20080103158A1, “METHODS FOR TREATING DELAYING THE PROGRESSION OF ALZHEIMER'S DISEASE WITH HETEROCYCLIC COMPOUNDS” (ZENYAKU KOGYO KABUSHIKI KAISHA, priority 2006, published 2008).

Tests used:
[1] = preclinical study (safety)
[2] = system: amyloid β deposition in the hippocampus; assay: Amyloid β deposition inhibitory activity: amyloid β immunohistochemistry of the hippocampus in senescene accelerated mice (SAMP8); assay type: in vivo
Experimental: Senescene accelerated mice (SAMP8) (male, 8 months old at the beginning of the study) were used for experiment. Approximately 0.1 mg/kg/day of Compound 1 was given in drinking water. Eight weeks after the dosing, the mouse brain was removed, Methacarn-fixed (methanol:chloroform:acetic acid=6:3:1), and paraffin-embedded. Then, sections of 8 μm in thickness were prepared using a microtome.
The sections were immunostained with streptavidin-biotin using a VECTASTATIN ABC kit. After one hour of incubation in 10% normal goat serum, the anti-amyloid β (Aβ) antibody was diluted with PBS to ten fold and incubated at 4° C. overnight. The following day, PBS rinsing, 1.5 hours of incubation with biotinylated anti-rabbit secondary antibody, PBS rinsing, and 1.5 hours of incubation with peroxidase-labeled streptavidin were conducted. The immunoreaction was visualized with DAB and specimens were prepared.
Immunoreactive Aβ-like granules in the hippocampus were counted under the microscope. The Aβ-like immunoreactive granule was observed as brown deposits in the hippocampus. The count was made for one section per individual.

Row | melting point | Compound | safety in the preclinical study [1] | amyloid β deposition (overall conclusion) ([2]; hippocampus immunohistochemistry) | number of amyloid β-immunoreactive granules ([2]; hippocampus, one section per individual, oral 0.002, 0.01 and 0.1 mg/kg in drinking water for 2 months, FIG. 2) | amyloid β-like immunoreactivity in the hippocampus ([2]; male, 8 months old, Compound 1 in drinking water at oral dosage of 0.002, 0.01 and 0.1 mg/kg/day for 2 months, vs tap water)
1 | – | O=C1N=C2C=CC=CN2C12Cc1ccccc1C2 [Compound 1, spiro[imidazo[1,2-a]pyridin-2(3H)-one-3,2′-indan]] | highly safe | inhibits amyloid β deposition | significantly (*) decreased | reduced
2 | 252.5 °C (dec.) | O=C1N=C2CCCCN2C12Cc1cc3ccccc3cc1C2 [Compound 76, spiro[5,6,7,8-tetrahydroimidazo[1,2-a]pyridin-2(3H)-one-3,2′-benzo[f]indan]] | – | – | – | –
3 | 227 to 228 °C | O=C1N=C2C=CC=CN2C1(CCCc1ccccc1)CCCc1ccccc1 [Compound 26, 3,3-bis(3-phenyl-1-propyl)imidazo[1,2-a]pyridin-2(3H)-one] | – | – | – | –
